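Interpolation was linear, between the two tested concentrations surrounding the appropriate level; five concentrations were tested over 48 hours in 96-well plates. TGI marks complete inhibition of growth.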
Key:
Experiment in all cases: NCI tumour cell line growth inhibition, 48 h
IGROV1 ovarian = system: IGROV1 ovarian
786-0 renal = system: 786-0 renal
OVCAR-8 ovarian = system: OVCAR-8 ovarian
HT29 colon = system: HT29 colon
A549 NSCLC = system: A549 NSCLC
NCI-H23 lung = system: NCI-H23 lung
OVCAR-5 ovarian = system: OVCAR-5 ovarian
LOX IMVI melanoma = system: LOX IMVI melanoma
UACC-257 melanoma = system: UACC-257 melanoma
TK-10 renal = system: TK-10 renal
MDA-MB-231 breast = system: MDA-MB-231 breast
MALME-3M melanoma = system: MALME-3M melanoma
SF-539 CNS = system: SF-539 CNS
SNB-75 CNS = system: SNB-75 CNS
NCI-H226 lung = system: NCI-H226 lung
ACHN renal = system: ACHN renal
COLO 205 colon = system: COLO 205 colon
NCI-H460 lung = system: NCI-H460 lung
CCRF-CEM leukemia = system: CCRF-CEM leukemia
SK-MEL-5 melanoma = system: SK-MEL-5 melanoma
SF-295 CNS = system: SF-295 CNS
BT-549 breast = system: BT-549 breast
MOLT-4 leukemia = system: MOLT-4 leukemia
RPMI-8226 leukemia = system: RPMI-8226 leukemia
HS 578T breast = system: HS 578T breast
CAKI-1 renal = system: CAKI-1 renal
EKVX NSCLC = system: EKVX NSCLC
HL-60(TB) leukemia = system: HL-60(TB) leukemia
SR leukemia = system: SR leukemia
SN12C renal = system: SN12C renal
SK-MEL-28 melanoma = system: SK-MEL-28 melanoma
RXF 393 renal = system: RXF 393 renal
HCT-15 colon = system: HCT-15 colon
KM12 colon = system: KM12 colon
PC-3 prostate = system: PC-3 prostate
HOP-92 NSCLC = system: HOP-92 NSCLC
SNB-19 CNS = system: SNB-19 CNS
DU-145 prostate = system: DU-145 prostate
OVCAR-4 ovarian = system: OVCAR-4 ovarian
MDA-MB-435 = system: MDA-MB-435
NCI/ADR-RES ovarian = system: NCI/ADR-RES ovarian
HCT-116 colon = system: HCT-116 colon
T-47D breast = system: T-47D breast
SK-MEL-2 melanoma = system: SK-MEL-2 melanoma
U251 CNS = system: U251 CNS
SW-620 colon = system: SW-620 colon
SF-268 CNS = system: SF-268 CNS
HOP-62 NSCLC = system: HOP-62 NSCLC
MDA-N = system: MDA-N
M14 melanoma = system: M14 melanoma
OVCAR-3 ovarian = system: OVCAR-3 ovarian
K-562 leukemia = system: K-562 leukemia
SK-OV-3 ovarian = system: SK-OV-3 ovarian
NCI-H522 lung = system: NCI-H522 lung
MCF7 breast = system: MCF7 breast
UACC-62 melanoma = system: UACC-62 melanoma
HCC-2998 colon = system: HCC-2998 colon

Which results are given for `CN1CCc2c(sc3[nH]c(=S)[nH]c(=S)c23)C1`?
TGI (IGROV1 ovarian): > 100 µM; TGI (786-0 renal): > 100 µM; TGI (OVCAR-8 ovarian): > 100 µM; TGI (HT29 colon): > 100 µM; TGI (A549 NSCLC): > 100 µM; TGI (NCI-H23 lung): > 100 µM; TGI (OVCAR-5 ovarian): > 100 µM; TGI (LOX IMVI melanoma): > 100 µM; TGI (UACC-257 melanoma): > 100 µM; TGI (TK-10 renal): > 100 µM; TGI (MDA-MB-231 breast): > 100 µM; TGI (MALME-3M melanoma): > 100 µM; TGI (SF-539 CNS): > 100 µM; TGI (SNB-75 CNS): > 100 µM; TGI (NCI-H226 lung): > 100 µM; TGI (ACHN renal): > 100 µM; TGI (COLO 205 colon): > 100 µM; TGI (NCI-H460 lung): > 100 µM; TGI (CCRF-CEM leukemia): > 100 µM; TGI (SK-MEL-5 melanoma): > 100 µM; TGI (SF-295 CNS): > 100 µM; TGI (BT-549 breast): > 100 µM; TGI (MOLT-4 leukemia): > 100 µM; TGI (RPMI-8226 leukemia): > 100 µM; TGI (HS 578T breast): > 100 µM; TGI (CAKI-1 renal): > 100 µM; TGI (EKVX NSCLC): > 100 µM; TGI (HL-60(TB) leukemia): > 100 µM; TGI (SR leukemia): > 100 µM; TGI (SN12C renal): > 100 µM; TGI (SK-MEL-28 melanoma): > 100 µM; TGI (RXF 393 renal): > 100 µM; TGI (HCT-15 colon): > 100 µM; TGI (KM12 colon): > 100 µM; TGI (PC-3 prostate): > 100 µM; TGI (HOP-92 NSCLC): > 100 µM; TGI (SNB-19 CNS): > 100 µM; TGI (DU-145 prostate): > 100 µM; TGI (OVCAR-4 ovarian): > 100 µM; TGI (MDA-MB-435): > 100 µM; TGI (NCI/ADR-RES ovarian): > 100 µM; TGI (HCT-116 colon): > 100 µM; TGI (T-47D breast): > 100 µM; TGI (SK-MEL-2 melanoma): > 100 µM; TGI (U251 CNS): > 100 µM; TGI (SW-620 colon): > 100 µM; TGI (SF-268 CNS): > 100 µM; TGI (HOP-62 NSCLC): > 100 µM; TGI (MDA-N): > 100 µM; TGI (M14 melanoma): > 100 µM; TGI (OVCAR-3 ovarian): > 100 µM; TGI (K-562 leukemia): > 100 µM; TGI (SK-OV-3 ovarian): > 100 µM; TGI (NCI-H522 lung): > 100 µM; TGI (MCF7 breast): > 100 µM; TGI (UACC-62 melanoma): > 100 µM

For `NCCCN(CCCN)CCc1cn(C(=O)c2ccccc2)cn1`, which TGI (IGROV1 ovarian) is on record?
Its TGI is 17.4 µM.

What about the TGI (786-0 renal) of the same compound?
The TGI was 25.6 µM.

What about the TGI (OVCAR-8 ovarian) of the same compound?
The TGI was 56.3 µM.

And the TGI (HT29 colon)?
The TGI was 29.5 µM.

And the TGI (A549 NSCLC)?
Its TGI is 26.7 µM.

And the TGI (NCI-H23 lung)?
Its TGI is 36.7 µM.

And the TGI (OVCAR-5 ovarian)?
Its TGI is 33.4 µM.

What about the TGI (LOX IMVI melanoma) of the same compound?
Its TGI is 43.5 µM.

What about the TGI (UACC-257 melanoma) of the same compound?
Its TGI is 25.2 µM.

And the TGI (TK-10 renal)?
The TGI was 20.6 µM.

What about the TGI (MDA-MB-231 breast) of the same compound?
The TGI was 28.8 µM.

What about the TGI (MALME-3M melanoma) of the same compound?
The TGI was 33.8 µM.

What about the TGI (SF-539 CNS) of the same compound?
The TGI was 35.3 µM.

And the TGI (SNB-75 CNS)?
The TGI was 17.7 µM.

And the TGI (NCI-H226 lung)?
Its TGI is 26.1 µM.

And the TGI (ACHN renal)?
The TGI was 19.2 µM.

And the TGI (COLO 205 colon)?
The TGI was 9.58 µM.

And the TGI (NCI-H460 lung)?
Its TGI is 39 µM.

And the TGI (CCRF-CEM leukemia)?
Its TGI is 14.8 µM.

What about the TGI (SK-MEL-5 melanoma) of the same compound?
The TGI was 21 µM.

What about the TGI (SF-295 CNS) of the same compound?
Its TGI is 30.7 µM.

And the TGI (BT-549 breast)?
The TGI was 35.1 µM.

And the TGI (MOLT-4 leukemia)?
The TGI was 17.9 µM.

And the TGI (RPMI-8226 leukemia)?
The TGI was 10 µM.

What about the TGI (HS 578T breast) of the same compound?
Its TGI is 86.5 µM.

What about the TGI (CAKI-1 renal) of the same compound?
The TGI was 16.1 µM.

What about the TGI (EKVX NSCLC) of the same compound?
The TGI was 23.3 µM.

And the TGI (HL-60(TB) leukemia)?
Its TGI is 10.8 µM.

And the TGI (SR leukemia)?
The TGI was 13.9 µM.

And the TGI (SN12C renal)?
Its TGI is 26.2 µM.

What about the TGI (SK-MEL-28 melanoma) of the same compound?
The TGI was 33.2 µM.

And the TGI (RXF 393 renal)?
The TGI was 8.89 µM.

And the TGI (HCT-15 colon)?
Its TGI is 27.1 µM.

What about the TGI (KM12 colon) of the same compound?
The TGI was 22.2 µM.

And the TGI (HCC-2998 colon)?
Its TGI is 19 µM.

What about the TGI (PC-3 prostate) of the same compound?
The TGI was 21.5 µM.

What about the TGI (HOP-92 NSCLC) of the same compound?
Its TGI is 13.2 µM.

And the TGI (SNB-19 CNS)?
The TGI was 33.6 µM.

And the TGI (DU-145 prostate)?
Its TGI is 11.3 µM.

And the TGI (OVCAR-4 ovarian)?
Its TGI is 15.3 µM.

What about the TGI (MDA-MB-435) of the same compound?
The TGI was 14.3 µM.

And the TGI (NCI/ADR-RES ovarian)?
The TGI was 53.9 µM.

And the TGI (HCT-116 colon)?
The TGI was > 51.2 µM.

And the TGI (T-47D breast)?
The TGI was 16.8 µM.

What about the TGI (SK-MEL-2 melanoma) of the same compound?
Its TGI is 24.7 µM.

What about the TGI (U251 CNS) of the same compound?
The TGI was 30.1 µM.

And the TGI (SW-620 colon)?
The TGI was 38.2 µM.

And the TGI (SF-268 CNS)?
Its TGI is 24.2 µM.

What about the TGI (HOP-62 NSCLC) of the same compound?
Its TGI is 23.4 µM.

What about the TGI (MDA-N) of the same compound?
The TGI was 40.5 µM.

And the TGI (M14 melanoma)?
Its TGI is 18.1 µM.

And the TGI (OVCAR-3 ovarian)?
The TGI was 7.75 µM.

And the TGI (K-562 leukemia)?
Its TGI is > 37.4 µM.

What about the TGI (SK-OV-3 ovarian) of the same compound?
Its TGI is 27.5 µM.

And the TGI (NCI-H522 lung)?
The TGI was 64.9 µM.

And the TGI (MCF7 breast)?
Its TGI is 11.4 µM.

What about the TGI (UACC-62 melanoma) of the same compound?
Its TGI is 23 µM.

Reference: PubChem BioAssay (NCI)
